Data published in ChEMBL document CHEMBL5252559, “Altersteroids A-D, 9,11-Secosteroid-Derived γ-Lactones from an Alternaria sp” (J Nat Prod, 2023).

How the values were obtained:
HCT-116 = experiment: Cytotoxicity against human HCT-116 cells assessed as inhibition of cell growth incubated for 72 hrs by MTT assay; format: functional, cell-based; details: HCT-116, 72 h
A549 [1] = experiment: Cytotoxicity against human A549 cells assessed as inhibition of cell growth incubated for 72 hrs by MTT assay; format: functional, cell-based; details: A549, 72 h
[2] = Cytotoxicity against cisplatin-sensitive mouse MB49 cells assessed as inhibition of cell growth incubated for 72 hrs by MTT assay; format: functional, cell-based; details: MB49, 72 h
[3] = Cytotoxicity against cisplatin-resistant mouse MB49 cells assessed as inhibition of cell growth incubated for 72 hrs by MTT assay; format: functional, cell-based; details: MB49, 72 h
A549 [4] = experiment: Induction of apoptosis in human A549 cells assessed as caspase 3/7 positive cells at 31.6 uM incubated for 48 hrs by […] staining and caspase 3/7 reagent based analysis relative to control; format: functional
A549 [5] = experiment: Induction of apoptosis in human A549 cells assessed as caspase 3/7 positive cells at 100 uM incubated for 48 hrs by […] staining and caspase 3/7 reagent based analysis relative to control; format: functional
[6] = Induction of caspase3/7-mediated apoptosis in human A549 cells assessed as increase in mean fluorescence intensity at 10 to 100 uM incubated for 48 hrs; format: functional; details: dose 10-100 µM

For CC(C)[C@@H](C)/C=C/[C@@H](C)[C@H]1CC[C@]2(C3=C[C@H](O)C4=C[C@@H](O)CC[C@]4(C)C3=O)OC(=O)C[C@]12C, the IC50 (HCT-116) was 4.8 µM, the IC50 (A549 [1]) was 5.3 µM and the IC50 [2] was 12.7 µM. The IC50 [3] was 12.7 µM, the Activity (A549 [4]) was 21.1% and the Activity (A549 [5]) was 81.9%. The Activity [6] was 2000.

For CC(C)[C@@H](C)/C=C/[C@@H](C)[C@H]1CC[C@]2(C3=CC(=O)[C@@H]4C[C@H](O)CC[C@]4(C)C3=O)OC(=O)C[C@]12C, the IC50 (HCT-116) was 57.8 µM, the IC50 (A549 [1]) was greater than 100 µM and the IC50 [2] was greater than 100 µM. It also gave an IC50 [3] greater than 100 µM.

In the case of CC(C)[C@@H](C)/C=C/[C@@H](C)[C@H]1CC[C@]2(C3=CC(=O)C4=CC(=O)CC[C@]4(C)C3=O)OC(=O)C[C@]12C, the IC50 (HCT-116) is reported as 45 µM, the IC50 (A549 [1]) is reported as 54.3 µM and the IC50 [2] is reported as 53.6 µM. For the same compound, the IC50 [3] was 54.3 µM.

CC(C)[C@@H](C)/C=C/[C@@H](C)[C@H]1CC[C@]2(C3=C[C@H](O)[C@@H]4C[C@H](O)CC[C@]4(C)C3=O)OC(=O)C[C@]12C gave an IC50 (HCT-116) of 14.6 µM, an IC50 (A549 [1]) of 19.7 µM and an IC50 [2] of 34.1 µM. It also gave an IC50 [3] of 14.2 µM.
